Data on 18 molecules can be found in patent publication US20210355106A1, “NEW AMINO-PYRIMIDONYL-PIPERIDINYL DERIVATIVES, A PROCESS FOR THEIR PREPARATION AND PHARMACEUTICAL COMPOSITIONS CONTAINING THEM” (LES LABORATOIRES SERVIER, priority 2018, published 2021).

The assay addresses T1, USP7 (Homo sapiens, UniProt Q93009, C315A).
T1 construct: 0.25 nM His-His-USP7 (aa208-560, |C315A|) was incubated with compound; His-His (N)
Description: Inhibition of USP7 by Fluorescence Intensity (FLINT) readings, Ubiquitin-Rhodamine-110 substrate. In kind it is biochemical. The following applies: 0.25 nM His-His-USP7 (aa208-560), 60 minutes at 30° C. preincubation; Ki determined from IC50 according to Cer et al. The method, then:
USP7 activity was measured using Rhodamine-110 c-terminal labelled Ubiquitin as a substrate (UbiQ Bio), Incubation with USP7 results in the release of Rhodamine-110 leading to an increase in fluorescence which can be used in the continuous measurement of USP7 activity.
The USP7 reactions were performed in a 50 μL volume, in 384 well black solid low binding plates (Corning #3575). The reaction buffer consisted of 100 mM Bicine pH 8.0, 0.01% TritonX 100, 1 mM TCEP, and 10% DMSO.
0.25 nM His-His-USP7 (aa208-560, |C315A|) was incubated with compound (final concentration 10% DMSO) for 60 minutes at 30° C. The reaction was then initiated by the addition of 50) nM Ubiquitin-Rhodamine-110 substrate or 4 μM Ubiquitin-Rhodamine-110 substrate and the plate read every 3 minutes for 21 minutes to measure the release of Rhodamine-110. Fluorescence Intensity (FLINT) readings were measured using a Biomek Neo plate reader (Ex.485 nm, Em.535 nm).
The inhibition of increasing doses of compound was expressed as a percentage reduction in kinetic rate compared to the kinetic rates established between ‘DMSO only’ and ‘total inhibition’ controls (no USP7). The inhibitory concentrations that gave a 50% reduction in kinetic rate (IC50) were determined, from 11-point dose response curves, in XL-Fit using a 4-Parameter Logistic Model 205 (Sigmoidal Dose-Response Model). The K, values were determined from the IC50 values according to Cer et al. Nucleic Acids Res. 2009, July 1; 37 (WebServer issue): W441-W445.

Counter-ions that a name gives are not always drawn.

As usually defined, the Ki is the equilibrium dissociation constant of an inhibitor or competing ligand from its target. A higher Ki goes with a looser hold on the target.

T1 sequence (Q93009 208-560 C315A): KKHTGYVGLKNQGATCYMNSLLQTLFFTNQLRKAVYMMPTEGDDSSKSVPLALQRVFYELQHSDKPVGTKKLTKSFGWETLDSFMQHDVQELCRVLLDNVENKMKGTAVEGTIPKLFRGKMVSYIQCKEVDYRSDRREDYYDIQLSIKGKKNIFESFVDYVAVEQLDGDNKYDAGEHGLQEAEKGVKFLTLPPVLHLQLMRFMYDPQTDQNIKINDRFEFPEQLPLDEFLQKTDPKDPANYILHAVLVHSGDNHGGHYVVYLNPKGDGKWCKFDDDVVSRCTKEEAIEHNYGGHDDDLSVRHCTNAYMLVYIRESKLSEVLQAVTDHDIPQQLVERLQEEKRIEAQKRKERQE

`CC1(N2CC[C@@H](C(=O)N3CCC(O)(Cn4cnc(Oc5ccccc5)c(N)c4=O)CC3)[C@H](c3ccccc3)C2)COC1` [Example 113, 5-amino-3-[[4-hydroxy-1-[(3R,4R)-1-(3-methyloxetan-3-yl)-3-phenyl-piperidine-4-carbonyl]-4-piperidyl]methyl]-6-phenoxy-pyrimidin-4-one]: the Ki was determined as 30.6 nM.
Molecule `CC1(N2CC[C@@H](C(=O)N3CCC(O)(Cn4cnc(Oc5ccc(F)cc5)c(N)c4=O)CC3)[C@H](c3ccccc3)C2)COC1` [Example 111, 5-amino-6-(4-fluorophenoxy)-3-[[4-hydroxy-1-[(3R,4R)-1-(3-methyloxetan-3-yl)-3-phenyl-piperidine-4-carbonyl]-4-piperidyl]methyl]pyrimidin-4-one] returned a Ki of 312 nM.
The molecule `Nc1c(Oc2ccc(F)cc2)ncn(C[C@@]2(O)CCN(C(=O)[C@@H]3CCN(C(=O)C4CC(c5ccccc5)C4)C[C@H]3c3ccccc3)CC2(F)F)c1=O` (single isomer, unassigned) [Example 72] displayed a Ki of 235 nM.
In turn, `Nc1c(Oc2ccc(F)cc2)ncn(CC2(O)CCN(C(=O)[C@@H]3CCN(C4(c5cccc(Br)c5)COC4)C[C@H]3c3ccccc3)CC2)c1=O` [Example 170, 5-amino-3-[[1-[(3R,4R)-1-[3-(3-bromophenyl)oxetan-3-yl]-3-phenyl-piperidine-4-carbonyl]-4-hydroxy-4-piperidyl]methyl]-6-(4-fluorophenoxy)pyrimidin-4-one] registered a Ki of 78.5 nM.
Next, `COc1ccc(NC(=O)N2CC[C@@H](C(=O)N3CCC(O)(Cn4cnc(Oc5ccc(F)cc5)c(N)c4=O)CC3)[C@H](c3ccccc3)C2)c(OC)c1` [Example 82]: 16 nM; `COc1cc(Oc2ncnc(OC[C@@]3(O)CCN(C(=O)[C@@H]4CCN(C(=O)OC(C)(C)C)C[C@H]4c4ccccc4)CC3(F)F)c2N)ccc1F` [Example 135]: 206 nM.
For `CC(C)(C)OC(=O)N1CC[C@@H](C(=O)N2CCC(O)(Cn3cnc(Oc4ccccc4)c(N)c3=O)CC2)[C@H](c2ccccc2)C1` [Example 7, tert-butyl (3R,4R)-4-[4-[(5-amino-6-oxo-4-phenoxy-pyrimidin-1-yl)methyl]-4-hydroxy-piperidine-1-carbonyl]-3-phenyl-piperidine-1-carboxylate] the value was 137 nM.
In turn, `CC(C)(C)OC(=O)N1CC[C@@H](C(=O)N2CCC(O)(Cn3cnc(Oc4cccc(C(F)(F)F)c4)c(N)c3=O)CC2)[C@H](c2ccccc2)C1` [Example 5, tert-butyl (3R,4R)-4-[4-[[5-amino-6-oxo-4-[3-(trifluoromethyl)phenoxy]pyrimidin-1-yl]methyl]-4-hydroxy-piperidine-1-carbonyl]-3-phenyl-piperidine-1-carboxylate] displayed a Ki of 299 nM.
`Nc1c(Oc2ccccc2)ncn(CC2(O)CCN(C(=O)[C@@H]3CCNC[C@H]3c3ccccc3)CC2)c1=O` [Example 20, 5-amino-3-[4-hydroxy-1-[(3R,4R)N-phenylpiperidine-4-carbonyl-4-piperidyl]methyl]-6-phenoxy-pyrimidin-4-one]: the Ki worked out at 112 nM.
Turning to `Nc1c(Oc2ccc(Cl)cc2)ncn(CC2(O)CCN(C(=O)[C@@H]3CCNC[C@H]3c3ccccc3)CC2)c1=O` [Example 14, 5-amino-6-(4-chlorophenoxy)-3-[[4-hydroxy-1-[(3R,4R)-3-phenylpiperidine-4-carbonyl]-4-piperidyl]methyl]pyrimidin-4-one hydrochloride], the affinity corresponds to a Ki of 115 nM.
As to `CC(C)(C)OC(=O)N1CC[C@@H](C(=O)N2CC[C@](O)(Cn3cnc(Oc4ccc(F)cc4)c(N)c3=O)C(F)(F)C2)[C@H](c2ccccc2)C1` [Example 10], the affinity, expressed as Ki, was 104 nM.
Molecule `Nc1c(Oc2ccc(F)cc2)ncn(CC2(O)CCN(C(=O)[C@@H]3CCN(C(=O)NCC(F)(F)F)C[C@H]3c3ccccc3)CC2)c1=O` [Example 90] showed an inhibition constant (Ki) of 345 nM.
In turn, `Nc1c(Oc2ccc(F)cc2)ncn(CC2(O)CCN(C(=O)[C@@H]3CCN(C(=O)c4cccc(C5CCCNC5)c4)C[C@H]3c3ccccc3)CC2)c1=O` (stereo partly drawn) [Example 116, 5-amino-6-(4-fluorophenoxy)-3-[(4-hydroxy-1-((3R,4R)-3-phenyl-1-[3-(piperidin-3-yl)benzoyl]piperidine-4-carbonyl}piperidin-4-yl)methyl]pyrimidin-4(3H)-one] returned a Ki of 8 nM.
`Nc1c(Oc2ccc(F)cc2)ncn(CC2(O)CCN(C(=O)[C@@H]3CCN(C(=O)c4ccc5c(c4)C(=O)C(=O)N5)C[C@H]3c3ccccc3)CC2)c1=O` [Example 58, 5-[(3R,4R)-4-[4-[[5-amino-4-(4-fluorophenoxy)-6-oxo-pyrimidin-1-yl]methyl]-4-hydroxy-piperidine-1-carbonyl]-3-phenyl-piperidine-1-carbonyl]indoline-2,3-dione] returned a Ki of 6.51 nM.
For the molecule `CC(C)(C)OC(=O)N1CC[C@@H](C(=O)N2CCC(O)(Cn3cnc(Oc4cccnc4)c(N)c3=O)CC2)[C@H](c2ccccc2)C1` [Example 137, tert-butyl (3R,4R)-4-[4-[[5-amino-6-oxo-4-(3-pyridyloxy)pyrimidin-1-yl]methyl]-4-hydroxy-piperidine-1-carbonyl]-3-phenyl-piperidine-1-carboxylate], affinity was put at a Ki of 226 nM.
Next, `COc1ccc(C2(N3CC[C@@H](C(=O)N4CCC(O)(Cn5cnc(Oc6ccc(F)cc6)c(N)c5=O)CC4)[C@H](c4ccccc4)C3)COC2)cc1` [Example 156, 5-amino-6-(4-fluorophenoxy)-3-[[4-hydroxy-1-[(3R,4R)-1-[3-(4-methoxyphenyl)oxetan-3-yl]-3-phenyl-piperidine-4-carbonyl]-4-piperidyl]methyl]pyrimidin-4-one]: 140 nM; `COc1cc(Cl)cc(Oc2ncn(CC3(O)CCN(C(=O)[C@@H]4CCN(C(=O)OC(C)(C)C)C[C@H]4c4ccccc4)CC3)c(=O)c2N)c1` [Example 2, tert-butyl (3R,4R)-4-[4-[[5-amino-4-(3-chloro-5-methoxy-phenoxy)-6-oxo-pyrimidin-1-yl]methyl]-4-hydroxy-piperidine-1-carbonyl]-3-phenyl-piperidine-1-carboxylate]: 191 nM; `Nc1c(Oc2ccc(F)cc2)ncn(CC2(O)CCN(C(=O)[C@@H]3CCN(S(=O)(=O)c4ccc(-c5cccs5)s4)C[C@H]3c3ccccc3)CC2)c1=O` [Example 118, 5-amino-6-(4-fluorophenoxy)-3-[[4-hydroxy-1-[(3R,4R)-3-phenyl-[[5-(2thienyl)-2-thienyl]sulfonyl]piperidine-4-carbonyl]-4-piperidyl]methyl]pyrimidin-4-one]: 123 nM.
